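96-well plates; 48 h exposure; 5 concentrations. Endpoints by linear interpolation between flanking doses. Not reached: highest tested concentration assigned. TGI: total growth inhibition.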
Assays:
Assay in all cases: growth of human tumour cells (NCI), 48 h
786-0 renal = tested on: 786-0 renal
A498 renal = tested on: A498 renal
ACHN renal = tested on: ACHN renal
CAKI-1 renal = tested on: CAKI-1 renal
CCRF-CEM leukemia = tested on: CCRF-CEM leukemia
HOP-62 NSCLC = tested on: HOP-62 NSCLC
IGROV1 ovarian = tested on: IGROV1 ovarian
K-562 leukemia = tested on: K-562 leukemia
MDA-MB-231 breast = tested on: MDA-MB-231 breast
OVCAR-5 ovarian = tested on: OVCAR-5 ovarian
PC-3 prostate = tested on: PC-3 prostate
RXF 393 renal = tested on: RXF 393 renal
TK-10 renal = tested on: TK-10 renal

SMILES	TGI (786-0 renal) [µM]	TGI (A498 renal) [µM]	TGI (ACHN renal) [µM]	TGI (CAKI-1 renal) [µM]	TGI (CCRF-CEM leukemia) [µM]	TGI (HOP-62 NSCLC) [µM]	TGI (IGROV1 ovarian) [µM]	TGI (K-562 leukemia) [µM]	TGI (MDA-MB-231 breast) [µM]	TGI (OVCAR-5 ovarian) [µM]	TGI (PC-3 prostate) [µM]	TGI (RXF 393 renal) [µM]	TGI (TK-10 renal) [µM]
O=c1oc2ccccc2n1CCN1CCCCC1	> 100	> 100	> 100	> 100	> 100	> 100	> 100	> 100	> 100	> 100	> 100	> 100	> 100
CSC1=C(c2ccc(Cl)cc2)SC(N2CCCCC2)N1c1ccc([N+](=O)[O-])cc1 (centres undefined)	> 100	73.2	> 100	> 100	> 100	41.8	> 100	> 100	77.1	65.9	63.4	> 100	> 100
CN(C)Cc1cc(N=Nc2ccccc2)cc(CN(C)C)c1O	> 100	> 100	> 100	> 100	94.3	> 100	> 100	> 100	> 100	> 100	> 100	> 100	> 100
C[Si](C)(OCCS(=O)(=O)O)C1S(=O)(=O)OCCOS1(=O)=O	> 100	> 100	> 100	84	> 100	> 100	> 100	> 100	> 100	> 100	> 100	> 100	> 100
Cc1nnc2n1-c1ccccc1C(=S)N1CSCC21 (centres undefined)	> 100	> 100	> 100	> 100	> 100	> 100	> 100	> 100	> 100	> 100	> 100	> 100	> 100
c1ccc(CSc2nc(N3CCOCC3)c3cn[nH]c3n2)cc1	> 100	26.1	90.9	57.5	36	> 100	31.7	> 100	39.4	> 100	38.2	32.9	51.6
COC(=O)CCC12CCC(O1)c1ccccc12 (centres undefined)	> 100	> 100	> 100	> 100	> 100	> 100	> 100	> 100	> 100	> 100	> 100	> 100	> 100
CC[C@@H](/C=C\CCC1(C[C@H](O)CCC=C(C)C)OCCO1)O[Si](C(C)C)(C(C)C)C(C)C	31.4	81.3	33.6	87.1	> 100	> 100	42.1	60	31.2	38.5	> 100	33.8	39.3
